From patent US9969742B2, “Imidazotriazinone compounds” (Ironwood Pharmaceuticals, Inc., priority 2012, dated 2018)
Like-named read-outs stand apart in the source and are kept apart here.

What was measured:
Type in all cases: biochemical
PDE9A2 = target: T1, PDE9A2 (Homo sapiens, UniProt O76083); assay: Phosphodiesterase enzyme screening assay, PDE9A2; details: 4.0 μM cGMP substrate, 1 hour at R.T., read-out: Band (PDE9A2 IC50)
T1 construct: purchased Reaction Biology Corporation, Malvern, Pa
How it was run: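 Human PDE isoforms were incubated 1 h at room temperature with 4.0 μM fluorescent cGMP substrate in 100 mM HEPES pH 7.5, 5 mM MgCl2, 1 mM DTT, 0.003% Brij. EDTA stop buffer ended reactions, and substrate and 5′-GMP product were separated by microfluidic electrophoretic mobility shift with laser-induced fluorescence. Inhibition was calculated against control wells.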

PDE1A = target: T2, PDE1A (Homo sapiens, UniProt P54750); assay: Phosphodiesterase enzyme screening assay, PDE1A
T2 construct: purchased Reaction Biology Corporation, Malvern, Pa
Text: (§1) Compounds of the invention were screened against PDE1A, PDE1B, PDE2A, PDE3A, PDE3B, PDE4A1A, PDE4B1, PDE4D3, PDE5A1, PDE6C, PDE7A, PDE8A1, PDE9A2, PDE10A2 AND PDE11A isoforms of the phosphodiesterase enzyme to determine activity and overall selectivity through comparative analysis. […] Where 8-methoxy-IBMX and Zaprinast were used as reference inhibitors.
(§2) The phosphodiesterase enzyme isoforms were obtained from a commercial retailer (Reaction Biology Corporation, Malvern, Pa.) for use in the instant screening assay.
(§3) The analysis was completed using the Caliper LabChip 3000 and a 12-sipper LabChip. LabChip assays are separations-based, meaning that the product and substrate are electrophoretically separated, thereby minimizing interferences and yielding the highest data quality available on any screening platform. […] High Z′ values, few false positives, few false negatives and analytical quality reproducibility are the reasons cited for the increasing reliance on the LabChip assays.
(§4) The off-chip incubation mobility-shift phosphodiesterase assay uses a microfluidic chip to measure the conversion of a fluorescent cyclic AMP substrate to a 5′-AMP product, or a cyclic GMP substrate to a 5′-GMP product. The reaction mixture, from a microtiter plate well, is introduced through a capillary sipper onto the chip, where the fluorescent substrate and product are separated by electrophoresis and detected via laser-induced fluorescence. […] The precision of microfluidics allows researchers to detect subtle interactions between drug candidates and therapeutic targets.
(§5) Reactions were carried out in 100 mM HEPES (pH 7.5), 5 mM MgCl2, 1 mM DTT, 0.003% Brij, 4.0 μM cGMP substrate. The reaction was started by addition of cGMP or cAMP and incubated for 1 hour at R.T. The reaction was terminated by the addition of stop buffer containing 100 mM HEPES (pH 7.5), 15 mM EDTA, 0.015% Brij-35, 5% DMSO. Cyclic AMP/GMP substrate and 5′-AMP/5′-GMP product were separated by charge using electrophoretic mobility shift. Product formed was compared to control wells to determine inhibition or enhancement of enzyme activity.
(§6) Data points were averages of quadruplicate wells and error bars represented the SEM for each point.

PDE1B = target: T3, PDE1B (Homo sapiens, UniProt Q01064); assay: Phosphodiesterase enzyme screening assay, PDE1B
T3 construct: purchased Reaction Biology Corporation, Malvern, Pa
Text: as §1, §2, §3, §4, §5, §6

[1] = Table 1, ratio of IC50 values, value greater than 1 indicates greater selectivity for PDE9A2

T2 sequence (P54750 whole entry): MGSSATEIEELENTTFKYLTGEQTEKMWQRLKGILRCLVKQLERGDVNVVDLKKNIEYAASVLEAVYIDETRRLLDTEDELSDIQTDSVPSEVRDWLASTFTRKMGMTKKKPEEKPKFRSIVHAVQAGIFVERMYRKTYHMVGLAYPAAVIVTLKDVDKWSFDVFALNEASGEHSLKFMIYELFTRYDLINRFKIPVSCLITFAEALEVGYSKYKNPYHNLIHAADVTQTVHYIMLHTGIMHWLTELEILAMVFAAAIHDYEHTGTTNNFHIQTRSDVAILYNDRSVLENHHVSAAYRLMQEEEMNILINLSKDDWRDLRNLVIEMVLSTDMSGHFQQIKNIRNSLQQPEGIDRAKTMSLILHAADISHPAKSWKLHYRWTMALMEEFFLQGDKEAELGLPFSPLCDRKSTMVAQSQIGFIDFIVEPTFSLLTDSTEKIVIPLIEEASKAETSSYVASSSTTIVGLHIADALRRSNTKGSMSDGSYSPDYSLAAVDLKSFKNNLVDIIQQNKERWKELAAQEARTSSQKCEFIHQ
T3 sequence (Q01064 whole entry): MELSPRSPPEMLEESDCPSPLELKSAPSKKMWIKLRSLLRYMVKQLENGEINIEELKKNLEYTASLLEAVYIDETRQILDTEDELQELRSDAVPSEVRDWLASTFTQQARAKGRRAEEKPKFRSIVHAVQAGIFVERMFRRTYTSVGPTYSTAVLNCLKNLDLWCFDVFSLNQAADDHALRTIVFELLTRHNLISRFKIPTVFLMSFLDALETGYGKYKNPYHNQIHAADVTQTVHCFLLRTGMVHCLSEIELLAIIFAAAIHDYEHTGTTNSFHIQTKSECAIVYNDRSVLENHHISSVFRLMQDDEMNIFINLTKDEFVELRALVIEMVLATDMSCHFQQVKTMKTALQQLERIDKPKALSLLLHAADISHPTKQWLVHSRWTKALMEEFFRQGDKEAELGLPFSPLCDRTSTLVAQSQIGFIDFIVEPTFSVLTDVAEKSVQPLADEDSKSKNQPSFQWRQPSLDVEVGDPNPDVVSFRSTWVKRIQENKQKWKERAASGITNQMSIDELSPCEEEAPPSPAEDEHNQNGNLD
T1 sequence (O76083 1-533 isoform O76083-2): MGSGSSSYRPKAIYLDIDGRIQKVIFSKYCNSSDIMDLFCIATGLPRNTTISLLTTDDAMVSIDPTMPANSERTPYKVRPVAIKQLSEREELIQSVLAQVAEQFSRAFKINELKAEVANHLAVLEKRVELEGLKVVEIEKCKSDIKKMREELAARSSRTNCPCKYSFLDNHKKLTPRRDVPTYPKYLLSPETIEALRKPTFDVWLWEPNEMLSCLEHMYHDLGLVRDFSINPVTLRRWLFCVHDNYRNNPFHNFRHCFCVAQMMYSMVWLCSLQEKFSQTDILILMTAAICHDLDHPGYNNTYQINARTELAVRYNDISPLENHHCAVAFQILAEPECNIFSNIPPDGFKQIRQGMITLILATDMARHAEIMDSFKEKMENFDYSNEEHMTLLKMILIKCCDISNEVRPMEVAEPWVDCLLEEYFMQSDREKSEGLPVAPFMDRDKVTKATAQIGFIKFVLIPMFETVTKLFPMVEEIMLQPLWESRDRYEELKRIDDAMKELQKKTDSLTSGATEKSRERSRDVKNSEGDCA

Compound	PDE1A selectivity (versus PDE9A2) (PDE1A; [1])	PDE1B selectivity (versus PDE9A2) (PDE1B; [1])	other results
C[C@@H]1CN(Cc2cn3ncccc3n2)C[C@H]1c1nn2c(C3CCOCC3)ncc2c(=O)[nH]1 (relative stereo) [(+)-2-((3,4-trans)-1-(imidazo[1,2-b]pyridazin-2-ylmethyl)-4-methylpyrrolidin-3-yl)-7-(tetrahydro-2H-pyran-4-yl)imidazo[5,1-f][1,2,4]triazin-4(3H)-one]	1005	1413	IC50 (PDE9A2; Table 1, 10 concentrations): < 1 µM
C[C@@H]1CN(Cc2ncccn2)C[C@H]1c1nn2c(C3CCOCC3)ncc2c(=O)[nH]1 (relative stereo) [(+)-2-((3,4-trans)-4-, (+)-2-((3,4-trans)-4-methyl-1-(pyrimidin-2-ylmethyl)pyrrolidin-3-yl)-7-(tetrahydro-2H-pyran-4-yl)imidazo[5,1-f][1,2,4]triazin-4(3H)-one]			IC50 (PDE9A2; Table 3): < 1 µM; PDE1A selectivity (versus PDE9A2) (PDE1A; ratio of IC50 values, PDE1A versus PDE9A2, value greater than 1 = greater selectivity for PDE9A2): 214; PDE1B selectivity (versus PDE9A2) (PDE1B; ratio of IC50 values, PDE1B versus PDE9A2, value greater than 1 = greater selectivity for PDE9A2): 456
C[C@@H]1CN(Cc2ccc3cccnc3c2)C[C@H]1c1nn2c(C3CCOCC3)ncc2c(=O)[nH]1 (relative stereo) [(+)-2-((3,4-trans)-4-methyl-1-(quinolin-7-ylmethyl)pyrrolidin-3-yl)-7-(tetrahydro-2H-pyran-4-yl)imidazo[5,1-f][1,2,4]triazin-4(3H)-one]	5020	5180	IC50 (PDE9A2; Table 1, 10 concentrations): < 1 µM
CC1CN(Cc2cccc(Cl)c2Cl)CC1c1nn2c(C3CCOCC3)ncc2c(=O)[nH]1 (single isomer, unassigned; (+)) [(+)-2-((3,4-trans)-1-(2,3-dichlorobenzyl)-4-methylpyrrolidin-3-yl)-7-(tetrahydro-2H-pyran-4-yl)imidazo[5,1-f][1,2,4]triazin-4(3H)-one]			IC50 (PDE9A2): < 1 µM; PDE1A selectivity (versus PDE9A2) (PDE1A; ratio of IC50 values PDE1A / PDE9A2, value greater than 1 = greater selectivity for PDE9A2): 195; PDE1B selectivity (versus PDE9A2) (PDE1B; ratio of IC50 values PDE1B / PDE9A2, value greater than 1 = greater selectivity for PDE9A2): 199
CC1CN(Cc2cccc(F)c2F)CC1c1nn2c(C3CCOCC3)ncc2c(=O)[nH]1 (single isomer, unassigned; (+)) [(+)-2-((3,4-trans)-1-(2,3-difluorobenzyl)-4-methylpyrrolidin-3-yl)-7-(tetrahydro-2H-pyran-4-yl)imidazo[5,1-f][1,2,4]triazin-4(3H)-one]	159	218	IC50 (PDE9A2; Table 1, 10 concentrations): < 1 µM
CC1CN(Cc2ccc(Cl)cc2Cl)CC1c1nn2c(C3CCOCC3)ncc2c(=O)[nH]1 (single isomer, unassigned; (+)) [(+)-2-((3,4-trans)-1-(2,4-dichlorobenzyl)-4-methylpyrrolidin-3-yl)-7-(tetrahydro-2H-pyran-4-yl)imidazo[5,1-f][1,2,4]triazin-4(3H)-one]	598	994	IC50 (PDE9A2; Table 1, 10 concentrations): < 1 µM
CC1CN(Cc2cnccn2)CC1c1nn2c(C3CCOCC3)ncc2c(=O)[nH]1 (single isomer, unassigned; (+)) [(+)-2-((3,4-trans)-4-methyl-1-(pyrazin-2-ylmethyl)pyrrolidin-3-yl)-7-(tetrahydro-2H-pyran-4-yl)imidazo[5,1-f][1,2,4]triazin-4(3H)-one]	202	178	
CC1CN(Cc2ncccn2)CC1c1nn2c(C3CCOCC3)ncc2c(=O)[nH]1 (single isomer, unassigned; (+)) [(+)-2-((3,4-trans)-4-methyl-1-(pyrimidin-2-ylmethyl)pyrrolid] [(+)-2-((3,4-trans)-4-methyl-1-(pyrimidin-2-ylmethyl)pyrrolidin-3-yl)-7-(tetrahydro-2H-pyran-4-yl)imidazo[5,1-f][1,2,4]triazin-4(3H)-one]	393	386	
CC1CN(Cc2ncccn2)CC1c1nn2c(C3CCOC3)ncc2c(=O)[nH]1 (single isomer, unassigned; (+)) [(+)-2-((3,4-trans)-4-methyl-1-(pyrimidin-2-ylmethyl)pyrrolid] [(+)-2-((3,4-trans)-4-methyl-1-(pyrimidin-2-ylmethyl)pyrrolidin-3-yl)-7-(tetrahydrofuran-3-yl)imidazo[5,1-f][1,2,4]triazin-4(3H)-one]	28	58	
CC1CN(Cc2ncc3ccccc3n2)CC1c1nn2c(C3CCOCC3)ncc2c(=O)[nH]1 (single isomer, unassigned; (+)) [(+)-2-((3,4-trans)-4-methyl-1-(quinazolin-2-ylmethyl)pyrroli] [(+)-2-((3,4-trans)-4-methyl-1-(quinazolin-2-ylmethyl)pyrrolidin-3-yl)-7-(tetrahydro-2H-pyran-4-yl)imidazo[5,1-f][1,2,4]triazin-4(3H)-one]	973	1360	
CC(=O)N1CCC(c2ncc3c(=O)[nH]c(C4CN(Cc5ccccc5)CC4C)nn23)CC1 (single isomer, unassigned; (+)) [(+)-7-(1-acetylpiperidin-4-yl)-2-((3,4-trans)-1-benzyl-4-methylpyrrolidin-3-yl)imidazo[5,1-f][1,2,4]triazin-4(3H)-one]	177	232	
CC1CN(Cc2ncccn2)CC1c1nn2c(C3CCC(F)(F)CC3)ncc2c(=O)[nH]1 (single isomer, unassigned; (+)) [(+)-7-(4,4-difluorocyclohexyl)-2-((3,4-trans)-4-methyl-1-(pyrimidin-2-ylmethyl)pyrrolidin-3-yl)imidazo[5,1-f][1,2,4]triazin-4(3H)-one]	165	313	
Cc1ccc(F)cc1-c1ncc2c(=O)[nH]c(C3CN(Cc4ncccn4)CC3C)nn12 (single isomer, unassigned; (+)) [(+)-7-(5-fluoro-2-methylphenyl)-2-((3,4-trans)-4-methyl-1-(p] [(+)-7-(5-fluoro-2-methylphenyl)-2-((3,4-trans)-4-methyl-1-(pyrimidin-2-ylmethyl)pyrrolidin-3-yl)imidazo[1,5-f][1,2,4]triazin-4(3H)-one]	158	102	
CC1CN(Cc2cccc(F)c2)CC1c1nn2c(C3CCOCC3)ncc2c(=O)[nH]1 (single isomer, unassigned; (-)) [(−)-2-((3,4-trans)-1-(3-fluorobenzyl)-4-methylpyrrolidin-3-yl)-7-(tetrahydro-2H-pyran-4-yl)imidazo[5,1-f][1,2,4]triazin-4(3H)-one]	1110	1140	
CC1CN(C(=O)c2ccc(F)cc2)CC1c1nn2c(C3CCOCC3)ncc2c(=O)[nH]1 (single isomer, unassigned; (-)) [(−)-2-((3,4-trans)-1-(4-fluorobenzoyl)-4-methylpyrrolidin-3-] [(−)-2-((3,4-trans)-1-(4-fluorobenzoyl)-4-methylpyrrolidin-3-yl)-7-(tetrahydro-2H-pyran-4-yl)imidazo[5,1-f][1,2,4]triazin-4(3H)-one]	12	23	
CC1CN(C(=O)c2ccccc2)CC1c1nn2c(C3CCOCC3)ncc2c(=O)[nH]1 (single isomer, unassigned; (-)) [(−)-2-((3,4-trans)-1-benzoyl-4-methylpyrrolidin-3-yl)-7-(tet] [(−)-2-((3,4-trans)-1-benzoyl-4-methylpyrrolidin-3-yl)-7-(tetrahydro-2H-pyran-4-yl)imidazo[5,1-f][1,2,4]triazin-4(3H)-one]	26	32	
Cc1cc(F)ccc1-c1ncc2c(=O)[nH]c(C3CN(Cc4ncccn4)CC3C)nn12 (single isomer, unassigned; (-)) [(−)-7-(4-fluoro-2-methylphenyl)-2-((3,4-trans)-4-methyl-1-(pyrimidin-2-ylmethyl)pyrrolidin-3-yl)imidazo[5,1-f][1,2,4]triazin-4(3H)-one]	132	175	
